Reference: patent publication US9938262B2, “Benzamides” (Merck Patent GmbH, priority 2011, dated 2018)

Molecular target: T1, FSHR (Homo sapiens, UniProt P23945)
T1 construct: expressed in transfected cells; host or cells: CHO (Cho-FSHR-LUC-1-1-43)
Assay: EC50 of cyclic AMP production in CHO FSHR cells + EC20 FSH (Assay A)
Assay type: cell-based
Conditions: 1 h; 5 μM; effect relative to maximum response of the FSH standard; Table 1
Description: Example 10: EC50 of Cyclic AMP Production in CHO FSHR Cells+EC20 FSH (Assay A)
2500 Cho-FSHR-LUC-1-1-43 cells were plated per well in 5 μl of phenol red free DMEM/F12+1% FBS. Cells were plated in 384 well, solid white low volume plates (Greiner 784075) by Multidrop. Cells were assayed by adding 100 μl of 2×EC20 FSH/IBMX in DMEM/F12+0.1% BSA) by Multidrop to 2 μl of test compound stamped in 384 well plates (compounds are diluted 1:50). The final FSH concentration was […], and the final IBMX concentration was 200 μM. The compound plate map was as follows: Column 1: 2 μl of DMSO; Column 2: 2 μl of DMSO; Columns 3-12 and 13-24: 2 μl of test compound, diluted 1:4 in 100% DMSO, or 2 μl of FSH, diluted 1:4 in DMEM/F12+0.1% BSA. The starting concentration for FSH was 50 nM (final concentration was 0.5 nM). […] 5 μl of compound+EC20 FSH mixture were transferred to cell plates (1:2 dilution into 5 μl of cell media) The plates were incubated at 37° C. for 1 h. 10 μl of mixed HTRF (CisBio #62AM4PEC) reagents were added per well and incubated at room temperature for 1 h. The plates were read on Envision using the cAMP HTRF—low volume 384 well protocol. The readout was the calculated fluorescence ratio (665 nm/620 nm). Values given in percent (%) indicate the percental effect (response) at a certain concentration of agonist relative to the maximum response of the FSH standard.

T1 sequence (P23945 18-695): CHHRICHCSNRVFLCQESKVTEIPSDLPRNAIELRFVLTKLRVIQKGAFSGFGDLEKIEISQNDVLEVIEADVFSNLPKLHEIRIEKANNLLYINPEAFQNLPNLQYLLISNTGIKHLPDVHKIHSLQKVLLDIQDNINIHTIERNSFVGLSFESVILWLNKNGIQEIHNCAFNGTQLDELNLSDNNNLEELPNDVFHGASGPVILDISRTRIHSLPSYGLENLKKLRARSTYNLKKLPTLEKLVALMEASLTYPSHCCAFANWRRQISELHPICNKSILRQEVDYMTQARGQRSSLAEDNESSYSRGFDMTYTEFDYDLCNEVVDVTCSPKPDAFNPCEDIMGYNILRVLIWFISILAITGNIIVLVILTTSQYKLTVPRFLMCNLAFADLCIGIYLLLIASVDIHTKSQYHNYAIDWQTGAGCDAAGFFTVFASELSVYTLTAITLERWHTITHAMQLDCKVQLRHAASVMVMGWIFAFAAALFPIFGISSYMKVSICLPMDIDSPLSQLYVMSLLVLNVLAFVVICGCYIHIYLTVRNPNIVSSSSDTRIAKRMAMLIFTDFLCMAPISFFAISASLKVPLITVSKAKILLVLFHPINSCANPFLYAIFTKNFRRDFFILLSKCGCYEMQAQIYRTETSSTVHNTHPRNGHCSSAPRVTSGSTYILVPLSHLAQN
T1 sequence (P01215 25-116 partner): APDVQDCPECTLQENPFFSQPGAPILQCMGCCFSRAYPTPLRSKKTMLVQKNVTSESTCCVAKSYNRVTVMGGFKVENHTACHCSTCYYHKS
T1 sequence (P01225 19-129 partner): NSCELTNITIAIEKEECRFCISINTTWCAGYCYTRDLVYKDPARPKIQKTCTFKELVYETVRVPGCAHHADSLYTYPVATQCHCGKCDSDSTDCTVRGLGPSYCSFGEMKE

Row | activation at 5 µM | SMILES
1 | 14% | Cc1ccccc1N1CCN(c2ccc(C(=O)NCCCN3CCCC3=O)cc2NC(=O)c2ccc(-c3ccccc3)o2)CC1 [Compound 13]
2 | 22% | Cc1ccc(C(=O)Nc2cc(C(=O)NCCCCCCNC(=O)OC(C)(C)C)ccc2N2CCN(c3ccccc3C)CC2)o1 [Compound 196]
3 | 8% | Cc1ccccc1N1CCN(c2ccc(C(=O)NCCCN3CCCC3=O)cc2NC(=O)c2cccc(C(N)=O)c2)CC1 [Compound 163]
4 | 33% | COc1ccc(C(=O)Nc2cc(C(=O)NCCCN3CCCC3=O)ccc2N2CCN(c3ccccc3C)CC2)cc1OC [Compound 127]

Same assay, conditions: CHO FSHR cells + EC20 FSH; Table 1; read-out: Assay A EC50 of cyclic AMP production

Row | EC50 | SMILES
5 | 1 to 10 µM | Cc1nc(C(F)(F)F)c(C(=O)Nc2cc(C(=O)NCCCN3CCCC3=O)ccc2N2CCN(c3ccccc3C)CC2)s1 [Compound 71]
6 | 1 to 10 µM | Cc1ccccc1C(=O)Nc1cc(C(=O)NCCCN2CCCC2=O)ccc1N1CCN(c2ccccc2C)CC1 [Compound 111]
7 | 0.1 to 1 µM | COc1ccc(C(=O)Nc2cc(C(=O)NCCCN3CCCC3=O)ccc2N2CCN(c3ccccc3C)CC2)nc1 [Compound 221]
8 | 0.1 to 1 µM | COc1ccc(C(=O)Nc2cc(C(=O)NCCCN3CCCC3=O)ccc2N2CCN(c3ccccc3C)CC2)o1 [Compound 141]
9 | 0.1 to 1 µM | Cc1ccccc1N1CCN(c2ccc(C(=O)N[C@H]3O[C@@H](CO)[C@@H]4OC(C)(C)O[C@@H]43)cc2NC(=O)c2ccco2)CC1 [Compound 191]
10 | < 0.1 µM | Cc1ccccc1N1CCN(c2ccc(C(=O)NCc3cccc(-c4nnn[nH]4)c3)cc2NC(=O)c2ccco2)CC1 [Compound 248]
11 | 1 to 10 µM | Cc1cccc(C(=O)Nc2cc(C(=O)NCCCN3CCCC3=O)ccc2N2CCN(c3ccccc3C)CC2)c1 [Compound 34]
12 | 1 to 10 µM | CNCCNC(=O)c1ccc(N2CCN(c3ccccc3C)CC2)c(NC(=O)c2ccco2)c1 [Compound 132, Furan-2-carboxylic acid [5-(2-methylamino-ethylcarbamoyl)-2-(4-o-tolyl-piperazin-1-yl)-phenyl]-amide]

Same assay, conditions: CHO FSHR cells + EC20 FSH; Table 2; read-out: Assay A EC50 of cyclic AMP production

Row | EC50 | SMILES
13 | > 10 µM | Cc1ccccc1N1CCN(c2ccc(C(=O)NCCNC3CCCC3)cc2NC(=O)c2ccco2)CC1 [Compound 389]
14 | 0.1 to 1 µM | Cc1ccccc1N1CCN(c2ccc(C(=O)NCCCN3CC(C)OC3=O)cc2NC(=O)c2coc(C3CC3)n2)CC1 (centres unmarked) [Compound 366]
15 | 0.1 to 1 µM | CCc1ccccc1N1CCN(c2ccc(C(=O)NCCCN3CCCC3=O)cc2NC(=O)c2coc(C3CC3)n2)CC1 [Compound 516]
16 | 0.1 to 1 µM | Cc1ccccc1N1CCN(c2ccc(C(=O)NCc3cccc(CN(C)C)c3)cc2NC(=O)c2coc(C3CC3)n2)CC1 [Compound 348]
17 | 1 to 10 µM | Cc1ccc(C(=O)Nc2cc(C(=O)NCCCN3CC(C)OC3=O)ccc2N2CCN(c3ccccc3C)CC2)o1 (centres unmarked) [Compound 370]
18 | 0.1 to 1 µM | Cc1ccccc1N1CCN(c2ccc(C(=O)NCCCN3C(=O)C(=O)N(C)C3=O)cc2NC(=O)c2ccco2)CC1 [Compound 379]
19 | > 10 µM | Cc1ccccc1N1CCN(c2ccc(C(=O)NCCCN3CCCC3=O)cc2NC(=O)c2coc(CN(C)C)n2)CC1 [Compound 422]
20 | 1 to 10 µM | Cc1ccccc1N1CCN(c2ccc(C(=O)N3CC4(COC4)C3)cc2NC(=O)c2ccco2)CC1 [Compound 592]

The next lines start with the molecule.

Row | SMILES | EC50
21 | Cc1ccccc1N1CCN(c2ccc(C(=O)N3CCC4(CC3)COC4)cc2NC(=O)c2coc(C3CC3)n2)CC1 [Compound 571] | 0.1 to 1 µM
22 | Cc1ccc(C)c(N2CCN(c3ccc(C(=O)NCCCN4CCCC4=O)cc3NC(=O)c3ccc(C)o3)CC2)c1 [Compound 519] | 0.1 to 1 µM
23 | Cc1ccccc1N1CCN(c2ccc(C(=O)NCC(C)CN3CCCC3=O)cc2NC(=O)c2ccco2)CC1 (centres unmarked) [Compound 280] | 0.1 to 1 µM
24 | Cc1ccccc1N1CCN(c2ccc(C(=O)NCCCN3CCCC3=O)cc2NCc2ccco2)CC1 [Compound 572] | < 0.1 µM
25 | Cc1ccccc1N1CCN(c2ccc(C(=O)NCc3ccccc3CN(C)C)cc2NC(=O)c2ccco2)CC1 [Compound 456] | 0.1 to 1 µM
26 | Cc1ccccc1N1CCN(c2ccc(C(=O)NCCCN3C(=O)OCC3C)cc2NC(=O)c2coc(C3CC3)n2)CC1 (centres unmarked) [Compound 332] | 0.1 to 1 µM
